Consider one compound from article PMC12010006, “Subnanomolar MAS-related G protein-coupled receptor-X2/B2 antagonists with efficacy in human mast cells and disease models” (Signal Transduction and Targeted Therapy, 2025).

In assay [1] the target is T1, MRGPRX2 (Homo sapiens, UniProt Q96LB1).
T1 sequence (Q96LB1 1-330): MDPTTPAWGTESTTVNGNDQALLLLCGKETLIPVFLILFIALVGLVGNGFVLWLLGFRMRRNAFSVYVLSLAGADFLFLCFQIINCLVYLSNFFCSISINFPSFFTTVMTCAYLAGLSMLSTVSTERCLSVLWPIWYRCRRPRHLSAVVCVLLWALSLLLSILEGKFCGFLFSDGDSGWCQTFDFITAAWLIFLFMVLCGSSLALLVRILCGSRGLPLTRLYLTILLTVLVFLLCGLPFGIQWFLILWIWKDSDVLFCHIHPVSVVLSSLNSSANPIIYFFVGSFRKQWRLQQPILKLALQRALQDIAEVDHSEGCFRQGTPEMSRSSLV
Nature of the assay: TRUPATH Gαq dissociation assay, LN229 cells expressing MRGPRX2. The conditions noted are these: read-out: EC50 of agonist, Gαq dissociation. Type of assay: cell-based. Details: expressed in transfected cells; host or cells: LN229 human glioblastoma cells; plasmid pLXSN-MRGPRX2 (Addgene #213960). The method, then:
(§1) Fig. 3 Biological characterization of PSB-172656. a Selectivity of PSB-172656 (100 nM) for MRGPRX2 over MRGPRX1, MRGPRX3, and MRGPRX4 measured in β-arrestin assays utilizing β-arrestin-CHO cells with recombinant expression of the respective receptor. MRGPRX1 was activated by BAM-22P (8.5 µM),[19] MRGPRX2 was activated by CST-14 (1 µM), MRGPRX3 was activated by PSB-20294 (10 µM), MRGPRX4 was activated by PSB-18061 (2.6 µM).[44] Data represent mean values ± SEM of 3-4 biological replicates, performed in duplicates. […] Data are means ± SEM of 3 biological replicates, in duplicates. Statistical significance was determined by one-way ANOVA (Tukey’s multiple comparison) test (ns P > 0.05). […] Data are means ± SEM of 3 biological replicates, performed in duplicates. e Shift assay to determine inhibition type of PSB-172656 versus CST-14. […] Extrapolated data were not used for analysis but only shown for a comprehensive view. f Schild plot for the effect of PSB-172656 on the concentration-response curves for CST-14. […]
(§2) To further investigate PSB-172656 signaling, direct activation of the relevant G protein subunits, Gαq and Gαi1,[32] was studied. This was assessed using G protein dissociation assays and LN229 cells stably overexpressing MRGPRX2 while transiently expressing the investigated G protein (Fig. 3c, d).[47]

Assay [2] deals with T1, MRGPRX2. Nature of the assay: β-arrestin recruitment assay (antagonist mode), β-arrestin-CHO cells recombinantly expressing MRGPRX2. Details: expressed in transfected cells. Type of assay: cell-based. (Activated receptors often draw arrestin, which recruitment assays turn into a signal.)
Assay [3] has as its target T1, MRGPRX2. The assay is described as follows: TRUPATH Gαi1 dissociation assay, LN229 cells expressing MRGPRX2. Particulars: read-out: EC50 of agonist, Gαi1 dissociation. Type of assay: cell-based. Details: expressed in transfected cells; host or cells: LN229 human glioblastoma cells; plasmid pLXSN-MRGPRX2 (Addgene #213960). The protocol:
as §1, §2

Assay [4] addresses T1, MRGPRX2. Nature of the assay: Ca2+ mobilization assay, LN229 cells overexpressing MRGPRX2. Type of assay: cell-based. Details: expressed in transfected cells; host or cells: LN229 human glioblastoma cells; plasmid pLXSN-MRGPRX2 (Addgene #213960). The method, then:
Glioblastoma LN229-MRGPRX2 stably expressing MRGPRX2 (produced by retroviral transfection) were seeded into black sterile 96-well microplates at a density of 5 × 10^4 cells/well in 200 µL of DMEM/F12-Nut Mix medium, supplemented with 10% FCS, 100 U/mL of penicillin 100 µg/mL of streptomycin, and 200 µg/mL of G418 and incubated for 18–22 h.
The next day Fluo-4 AM Solution (1 mM) (Thermo Fisher Scientific) was prepared and used to prepare cell loading dye solution consisting of 4970 µL of Hank’s Buffered Saline Solution (HBSS) buffer, 15 µL of 20% Pluronic-F and 15 µL of 1 mM Fluo-4 AM. Next, the cell medium was removed and exchanged for 40 µL of dye solution per well (final concentration of Fluo-4 AM: 3 µM). The cell plate was incubated for 60 min in the dark at room temperature, then the dye solution was removed and replaced by 189 µL HBSS. Subsequently, 1 µL of antagonist diluted in DMSO was added and incubated for 30 min at room temperature and in the dark (final DMSO concentration 0.5%, v/v). CST-14 or another agonist prepared in HBSS as well as carbachol (final concentration 100 µM) were pipetted (10 µL) using a FlexStation® 3 Multi-Mode Microplate Reader. For the determination of baseline fluorescence, HBSS buffer containing solvent of the investigated compound was used. Fluorescence was measured for 120 intervals of 1 s (number of flashes: 10) at a wavelength of 525 nm (excitation 485 nm) using the SoftMax® Pro5.1 Microplate Data Acquisition & Analysis Software. Three independent experiments were performed in duplicates. Measurements are provided in relative fluorescence units and normalized to the maximal effect of CST-14.
In general terms: Calcium assays in cells follow changes in intracellular calcium, usually with a dye or a luminescent sensor.

A further assay has as its target T2, mouse MRGPRB2 (Mus musculus, UniProt Q3KNA1).
T2 construct: expressed in transfected cells; host or cells: 1321N1 astrocytoma cells; plasmid pLVX-IRES-MRGPRB2-mCherry (Addgene #213961)
T2 sequence (Q3KNA1 1-338): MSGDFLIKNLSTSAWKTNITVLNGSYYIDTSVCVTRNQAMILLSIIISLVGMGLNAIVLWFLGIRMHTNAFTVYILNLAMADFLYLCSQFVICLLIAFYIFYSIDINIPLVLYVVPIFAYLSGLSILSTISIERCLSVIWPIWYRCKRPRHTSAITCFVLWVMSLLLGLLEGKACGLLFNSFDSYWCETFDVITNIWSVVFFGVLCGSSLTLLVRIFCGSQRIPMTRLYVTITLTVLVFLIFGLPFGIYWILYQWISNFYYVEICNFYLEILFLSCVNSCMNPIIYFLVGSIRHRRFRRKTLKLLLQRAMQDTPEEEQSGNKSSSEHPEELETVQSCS
Further details: method as in PMID 38184723. Particulars: cited from earlier work.

Positions of bridges follow the written chain, without caps; N, C: chain ends. Residues, ends and D or L forms follow the SMILES beside them.

Take `C[C@@H](O)[C@@H]1NC(=O)[C@H](CCCCN)NC(=O)[C@H](Cc2c[nH]c3ccccc23)NC(=O)[C@H](Cc2ccccc2)NC(=O)[C@H](Cc2ccccc2)NC(=O)[C@H](CC(N)=O)NC(=O)[C@H](CCCCN)NC(=O)[C@@H](NC(=O)[C@@H]2CCCN2)CSSC[C@@H](C(=O)N[C@@H](CCCCN)C(=O)O)NC(=O)[C@H](CO)NC(=O)[C@H](CO)NC(=O)[C@H](Cc2ccccc2)NC1=O` [CST-14, reference compound] (H-PCKNFFWKTFSSCK-OH; disulfide 2-13; N-terminus and C-terminus assumed): the EC50 on MRGPRX2 [1] was determined as 499 ± 207 nM; at MRGPRX2 [2] (agonist concentration-response curve, read-out: EC50 of agonist, β-arrestin assay), 483 nM; at MRGPRX2 [2] (without antagonist, read-out: EC50 of CST-14, shift assay), 283 ± 45 nM; on MRGPRX2 [3] it was 113 ± 16 nM; at MRGPRX2 [4] (agonist concentration-response curve), 452 ± 49 nM. Besides, on MRGPRX2 [2], the “EC80 of agonist, β-arrestin assay” value came to 1000 nM. For the same compound, the “EC80 of agonist, Ca2+ assay” value at MRGPRX2 [4] worked out at 800 nM. Besides, at mouse MRGPRB2, the “EC80 of agonist at MRGPRB2, Ca2+ assay” value was 2000 nM.
